Like-named read-outs stand apart in the source and are kept apart here.
Columns and labels:
K562 = assay: Cytotoxicity assay (resazurin) on K562; format: cell-based; conditions: Homo sapiens, 72 h
Procedure: (§1) Human cell lines KCL22 and BV173 were obtained from the German Collection of Microorganisms and Cell Cultures, K562 and HEK-293T from the European Collection of Authenticated Cell Cultures. KBM5 cell line was kindly gifted by Vladimír Divoký. Development of KCL22 subclones B8 (T315I, 100%), F4 (E255K, 100%), and B10 (Y253H, 50%) was reported previously. All cell lines were cultivated in humidified incubator at 37 °C and in 5% CO2 according to the provider’s instructions in appropriate media supplemented with 10% fetal bovine serum, penicillin (100 IU/mL), streptomycin (100 µg/mL), and glutamine (4 mM).
(§2) Cytotoxicity was determined using resazurin, an indicator dye to measure oxidation-reduction reactions occurring in the mitochondria of live cells. The cells were seeded into 96-well plates and treated with compounds for 72 h (six different doses of each, in triplicate). After treatment, resazurin (Merck, Darmstadt, Germany) solution was added for 4 h, and the fluorescence of formed resorufin corresponding to live cell quantity was measured at 544 nm/590 nm (excitation/emission) using a Fluoroskan Ascent microplate reader (Labsystems, Vantaa, Finland).

KCL22 B10 (Y253H, 50%) = assay: Cytotoxicity assay (resazurin) on KCL22 subclone B10; format: cell-based; conditions: Homo sapiens, KCL-22, read-out: GI50 KCL22 B10 Y253H (50%), 72 h
Procedure: as §1, §2

BV173 = assay: Cytotoxicity assay (resazurin) on BV173; format: cell-based; conditions: Homo sapiens, BV-173, 72 h
Procedure: as §1, §2

recombinant Abl1 kinase = molecular target: T1, recombinant Abl1 kinase (Homo sapiens, UniProt P00519); assay: Recombinant Abl1 kinase inhibition assay ([γ-33P]ATP, peptide substrate); format: biochemical
T1 construct: made in house
Procedure: The reactions were stopped by adding 5 µL of 3% aq. H3PO4. […] H3PO4, and air-dried.

KBM5 = assay: Cytotoxicity assay (resazurin) on KBM5; format: cell-based; conditions: Homo sapiens, read-out: GI50 KBM5
HEK-293T = assay: Cytotoxicity assay (resazurin) on non-neoplastic HEK-293T; format: cell-based; conditions: Homo sapiens, 72 h, non-neoplastic cells
Procedure: as §1, §2

KCL22 F4 (E255K, 100%) = assay: Cytotoxicity assay (resazurin) on KCL22 subclone F4; format: cell-based; conditions: Homo sapiens, KCL-22, read-out: GI50 KCL22 F4 E255K (100%), 72 h
Procedure: as §1, §2

KCL22 B8 (T315I, 100%) = assay: Cytotoxicity assay (resazurin) on KCL22 subclone B8; format: cell-based; conditions: Homo sapiens, KCL-22, read-out: GI50 KCL22 B8 T315I (100%), 72 h
Procedure: as §1, §2

[1] = tested on: KCL22 cells containing Bcr-Abl^WT; assay: Cytotoxicity assay (resazurin) on KCL22 WT; format: cell-based, human
[2] = tested on: KCL22 B8 cell line containing Bcr-Abl^T315I; assay: Cell cycle flow cytometry, KCL22 B8; format: cell-based, human; conditions: 24 h treatment
Procedure: The cell lines were seeded into 96-well plates and then treated with compounds for 24 h. After treatment, the cells were directly stained by adding 5 × staining solution (17 mM trisodium citrate dihydrate, 0.5% IGEPAL® CA-630, 7.5 mM spermine tetrahydrochloride, 2.5 mM Tris; pH 7.6 containing 50 μg/mL propidium iodide). […] Cell cycle distribution was analyzed using ModFit LT 5.0.9 (Verity Software House, Augusta, ME, USA).

[3] = from the IC50 of Table S1, read-out: pIC50 (Table S1) (converted)
[4] = recombinant Abl1, 1 µM ATP, at least three independent experiments, read-out: IC50 Abl
[5] = Homo sapiens, KCL-22, 72 h, read-out: GI50 KCL22 WT
[6] = as listed in Table S1, Bcr-Abl WT, read-out: IC50 (Table S1)

T1 sequence (P00519 whole entry): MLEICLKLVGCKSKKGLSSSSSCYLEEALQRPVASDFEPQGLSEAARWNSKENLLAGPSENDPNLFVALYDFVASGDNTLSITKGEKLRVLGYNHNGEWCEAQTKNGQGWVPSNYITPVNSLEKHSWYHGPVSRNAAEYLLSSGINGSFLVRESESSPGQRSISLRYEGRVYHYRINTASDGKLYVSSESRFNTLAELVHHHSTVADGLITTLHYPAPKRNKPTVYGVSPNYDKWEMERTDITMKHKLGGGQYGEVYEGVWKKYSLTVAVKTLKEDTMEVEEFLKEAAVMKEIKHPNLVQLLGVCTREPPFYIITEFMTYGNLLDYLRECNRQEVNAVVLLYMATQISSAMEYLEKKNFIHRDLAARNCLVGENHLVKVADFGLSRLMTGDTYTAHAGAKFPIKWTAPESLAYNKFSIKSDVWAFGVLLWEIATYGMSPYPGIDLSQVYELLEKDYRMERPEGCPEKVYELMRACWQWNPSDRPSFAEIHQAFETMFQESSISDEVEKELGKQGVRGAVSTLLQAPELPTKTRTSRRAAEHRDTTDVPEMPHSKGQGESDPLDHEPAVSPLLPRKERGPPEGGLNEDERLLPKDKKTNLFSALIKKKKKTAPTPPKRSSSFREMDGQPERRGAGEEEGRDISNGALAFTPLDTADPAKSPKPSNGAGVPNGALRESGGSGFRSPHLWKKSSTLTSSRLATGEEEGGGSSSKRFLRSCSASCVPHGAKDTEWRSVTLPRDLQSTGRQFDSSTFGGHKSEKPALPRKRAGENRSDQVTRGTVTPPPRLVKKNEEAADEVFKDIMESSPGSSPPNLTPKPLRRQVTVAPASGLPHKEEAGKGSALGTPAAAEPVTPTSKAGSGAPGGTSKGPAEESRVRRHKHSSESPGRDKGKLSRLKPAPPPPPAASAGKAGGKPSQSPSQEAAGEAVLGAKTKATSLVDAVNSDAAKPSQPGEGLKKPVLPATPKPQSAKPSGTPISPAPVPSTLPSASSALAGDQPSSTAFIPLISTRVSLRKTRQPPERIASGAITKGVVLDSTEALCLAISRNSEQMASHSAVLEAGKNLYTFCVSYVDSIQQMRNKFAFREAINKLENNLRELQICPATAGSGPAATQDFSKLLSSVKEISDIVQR

IC50 (recombinant Abl1 kinase; [3]) [µM]	IC50 (recombinant Abl1 kinase; [4]) [µM]	melting point [°C]	IC50 (recombinant Abl1 kinase; [6]) [µM]	SMILES	GI50 (K562) [µM]	GI50 (KCL22 B10 (Y253H, 50%)) [µM]	GI50 (BV173) [µM]	GI50 (KBM5; KBM5, 72 h, resazurin assay) [µM]	GI50 (HEK-293T) [µM]	GI50 (KCL22 F4 (E255K, 100%)) [µM]	GI50 (KCL22 B8 (T315I, 100%)) [µM]	GI50 [1, 5] [µM]	GI50 (KBM5; KBM5, 72 h) [µM]	Effect on cell cycle distribution, KCL22 B8 (T315I) [2]	GI50 ([1]; 72 h, read-out: GI50 KCL22 WT) [µM]	GI50 ([1]; read-out: GI50 KCL22 WT, 72 h) [µM]
1.68	1.68 ± 0.01	135.1 to 137.1		CCCCCCn1cnc2c(Nc3ccc(F)c(F)c3)nc(Nc3ccc(N4CCN(CCO)CC4)cc3)nc21 [Compound 11i, 2-(4-(4-((6-((3,4-Difluorophenyl)amino)-9-hexyl-9H-purin-2-yl)amino)phenyl)piperazin-1-yl)ethan-1-ol]	3.1 ± 0.6	> 20	4.8 ± 0.3	5.6 ± 0.2	> 20	> 20	> 20	> 20				
3.95	3.96 ± 0.51	133 to 134	3.95	CN1CCN(c2ccc(Nc3nc(N)c4ncn(CC5CC5)c4n3)cc2)CC1 [Compound 13a, 9-(Cyclopropylmethyl)-N^2-(4-(4-methylpiperazin-1-yl)phenyl)-9H-purine-2,6-diamine]	> 100	> 100	> 20	> 100	> 100	> 100	> 100	> 100				
11	11.1 ± 3.31		11.1	CN1CCN(c2ccc(Nc3nc(NC4CCCCC4)c4ncn(CC5CC5)c4n3)cc2)CC1 [Compound 13b, N^6-cyclohexyl-9-(cyclopropylmethyl)-N^2-(4-(4-methylpiperazin-1-yl)phenyl)-9H-purine-2,6-diamine]	4.8 ± 0.3	> 20	> 20	> 20	> 20	> 20	> 20	> 20				
0.839	0.845 ± 0.066	152 to 154	0.84	CN1CCN(c2ccc(Nc3nc(NCc4ccccc4)c4ncn(CC5CC5)c4n3)cc2)CC1 [Compound 13c, N^6-benzyl-9-(cyclopropylmethyl)-N^2-(4-(4-methylpiperazin-1-yl)phenyl)-9H-purine-2,6-diamine]	5.7 ± 0.6	> 20	11.9 ± 1.4	> 20	16.7 ± 1.1	> 20	> 20	> 20				
				CN1CCN(c2ccc(Nc3nc(Nc4ccccc4)c4ncn(CC5CC5)c4n3)cc2)CC1 [Compound I, reference compound]	1.5 ± 0.1	5.2 ± 0.2	2.2 ± 0.2		7.5 ± 1.4	5.7 ± 0.3	17.3 ± 2		2.7 ± 0.1			
				CN1CCN(c2ccc(Nc3nc(Nc4cccc(F)c4)c4ncn(CC5CC5)c4n3)cc2)CC1 [II, reference compound]	0.8 ± 0.1	8.8 ± 0.4	5.3 ± 0.2		5.6 ± 0.6	> 20	> 20		5.1 ± 0.5			
				CN1CCN(c2ccc(Nc3nc(Nc4ccc(F)c(F)c4)c4ncn(CC5CC5)c4n3)cc2)CC1 [III, reference compound]	1.2 ± 0.4	3.4 ± 0.4	1.4 ± 0.1		5.3 ± 0.3	> 20	> 20		1.1 ± 0.8			
				Cc1ccc(NC(=O)c2ccc(CN3CCN(C)CC3)cc2)cc1Nc1nccc(-c2cccnc2)n1 [Imatinib, reference compound]	0.231 ± 0.001	> 20	0.199 ± 0.061		> 10	9.6 ± 0.5	> 20					
				Cc1cn(-c2cc(NC(=O)c3ccc(C)c(Nc4nccc(-c5cccnc5)n4)c3)cc(C(F)(F)F)c2)cn1 [Nilotinib, reference compound]	0.025 ± 0.01	1.4 ± 0.3	0.003	0.019 ± 0.009	> 10	0.789 ± 0.081	> 20			no effect	0.047 ± 0.008	0.019

Reference: article PMC11125181, “New Inhibitors of Bcr-Abl Based on 2,6,9-Trisubstituted Purine Scaffold Elicit Cytotoxicity in Chronic Myeloid Leukemia-Derived Cell Lines Sensitive and Resistant to TKIs” (Pharmaceutics, 2024)
